Measurements published in patent publication US20090298045A1, “Method For Selectively Expanding, Selecting And Enriching Stem/Progenitor Cell Populations” (Tel Hashomer-Medical Research, Infrastructure And Services …, priority 2004, published 2009).

How the values were obtained:
Format in all cases: cell-based, human
UCB-derived CD133+ cells = assay: Ex vivo expansion of purified UCB-derived CD133+ cells with cytokines, CD133+ cell fraction by flow cytometry; settings: for CD133+ cell population with cytostatic agent: colchicine 2.5 ng/ml, two weeks expansion; for Fold enrichment (CD133+): with vs without colchicine 2.5 ng/ml, two weeks
Method: Cells were obtained from human umbilical cord blood (UCB) after normal fall-term delivery. The cells were layered on a Ficoll-Hypaque gradient (1.077 g/ml Sigma), and centrifuged at 500 g for 30 minutes. The mononuclear cells in the interface layer were collected and washed three times in phosphate-buffered saline (PBS; Biological Industries) containing 0.5% Bovine serum albumin (BSA). To purify the CD133^+ cells, the mononuclear cell fraction was subjected to two cycles of immunomagnetic bead separation using a MiniMACS CD133 progenitor cell isolation kit (Miltenyi Biotec,), according to the manufacturer's recommendations.
(§1) Purified CD133^+ cells were cultured in 24-well culture plate at densities of 2-4×10^4 cells in alpha-MEM medium (Biological Industries) supplemented with 10% fetal calf serum (Biological Industries) and the following human recombinant cytokines (Pepro Tech, Inc., Rocky Hill, N.J., USA): Trombopoietin, interleukin-6, FLT-3 ligand and Stem Cell Factor, at final concentration of 50 ng/ml each as well as interleukin-3 and IL2 at 20 ng/ml, in the absence or presence of colchicine in a concentration scale as indicated. Cells were expanded at 37° C. in a humidified atmosphere of 5% CO2 in air.
(§2) Cultures were depopulated twice a week and a fresh medium in which growth factors and colchicine were added. At various time points, cells were counted after staining with trypan blue and harvested cells were used for enumeration of CD133^+ cells following immunophenotype analysis.
(§3) The cells were washed with a PBS solution containing 1% BSA and stained (at 4° C. for 30 min) with fluorescein isothiocyanate (FITC)- or phycoerythrin (PE)-conjugated antibodies that are specifically described in the next sections. Cells were washed in the abovementioned buffer and analyzed by flow cytometer (Becman coulter). Cells were passed at a rate of up to 1000 cells/second, using a 488-nm argon laser beam as the light source for excitation.
(§4) The percentage of CD133^+ cell fraction from total cells was determined by flow cytometry using. PE-anti-CD133^+ antibody (Miltenyi Biotec). Fold enrichment was calculated by dividing the CD133^+ cell percentage of culture growing with cytostatic agent by the CD133^+ cell percentage of culture growing without cytostatic agent. Since cultures were depopulated twice a week, the culture volume was calculated by multiplying the actual volume with the number of passages. Fold expansion was calculated by dividing the CD133^+ cell content of the culture by the initial number of cultured CD133^+ cells.

[1] = test system: Fresh, enriched CD133+ stem cells; assay: Cell counts and fold expansion of CD133+ stem cells after ex-vivo expansion; settings: colchicine 2.5 ng/ml; for Fold expansion of CD133+ cells: 2 weeks vs T0
Method: as §1, §2, §4

[2] = test system: CD34+CD38- early stem cell sub-population of UCB derived CD133+ cells; assay: Determination of CD34+CD38- early stem cell subset in cultured CD133+ cells by flow cytometry; settings: for CD34+38- cell population with cytostatic agent: colchicine 2.5 ng/ml, one week expansion; for Fold enrichment (CD34+38-): with vs without colchicine 2.5 ng/ml, one week
Method: as §1, §3
The percentages of early stem cell subsets were determined from the purified fresh and/or cultured CD133^+ cell fraction. Cells were dually stained with PE anti-CD34 and FITC anti-CD38 (DAKO) for determination of CD34^+ CD38^− cells by flow cytometry analyses with PE anti-CD133^+ antibody (Miltenyi Biotec).

[3] = Exp. 1, T0 0.4 × 10^3 CD133+ cells
[4] = Exp. 2, T0 0.2 × 10^3 CD133+ cells
[5] = Exp. 3, T0 0.4 × 10^3 CD133+ cells

COc1cc2c(c(OC)c1OC)-c1ccc(OC)c(=O)cc1[C@@H](NC(C)=O)CC2 [colchicine]
optimal concentration in which the highest CD133+ cells enrichment was achieved (UCB-derived CD133+ cells; 2 weeks expansion, three independent experiments, FIG. 3): 2.5 ng/mL
CD133+ cell population with cytostatic agent (UCB-derived CD133+ cells; Donor # 1 (first line)): 4%
Fold enrichment (CD133+) (UCB-derived CD133+ cells; Donor # 1 (first line)): 4
CD133+ cell population with cytostatic agent (UCB-derived CD133+ cells; Donor # 1): 7%
Fold enrichment (CD133+) (UCB-derived CD133+ cells; Donor # 1): 7
CD133+ cell population with cytostatic agent (UCB-derived CD133+ cells; Donor # 3): 15%
Fold enrichment (CD133+) (UCB-derived CD133+ cells; Donor # 3): 2.5
CD133+ cell population with cytostatic agent (UCB-derived CD133+ cells; Mean ± SD of three donors): 8.7 ± 5.7%
Fold enrichment (CD133+) (UCB-derived CD133+ cells; Mean ± SD of three donors): 4.5 ± 2.3
enrichment of UCB-derived CD133+ cell-fraction (in words) (UCB-derived CD133+ cells; concentration scale, 2 weeks expansion, FIG. 3): dose-dependent enrichment
CD133+ cells, T(2 weeks), with colchicine [1, 3]: 5.4 × 10^3
Total cells, T(2 weeks), with colchicine [1, 3]: 135 × 10^3
Fold expansion of CD133+ cells ([1]; Exp. 1): (X 13.5)
CD133+ cells, T(2 weeks), with colchicine [1, 4]: 4.7 × 10^3
Total cells, T(2 weeks), with colchicine [1, 4]: 68 × 10^3
Fold expansion of CD133+ cells ([1]; Exp. 2): (X 23.5)
CD133+ cells, T(2 weeks), with colchicine [1, 5]: 4.1 × 10^3
Total cells, T(2 weeks), with colchicine [1, 5]: 27 × 10^3
Fold expansion of CD133+ cells ([1]; Exp. 3): (X 10.2)
percentage of CD34+CD38- sub-population, treated vs un-treated cultures (in words) ([2]; 1 week in culture): increase in the percentage
CD34+38- cell population with cytostatic agent ([2]; Donor # 3): 15%
Fold enrichment (CD34+38-) ([2]; Donor # 3): 1.7
CD34+38- cell population with cytostatic agent ([2]; Donor # 4): 5%
Fold enrichment (CD34+38-) ([2]; Donor # 4): 10
